Data on one molecule can be found in ChEMBL document CHEMBL4806958, “Anti-cancer/anti-fibrosis compounds” (2020).

Assay [1] has as its system MOLM-14. Description: Down regulation of phosphorylated-STAT1 level in human MOLM-14 cells at 0.03 to 3 uM after 48 hrs by Western blotting analysis. Format: functional, cell-based. As to conditions: dose 0.03-3 µM. In general terms: Immunoblotting shows a protein as a band on a membrane.
For assay [2], the system named is MV4-11. Description: Down regulation of C-MYC level in human MV-4-11 cells at 0.03 to 3 uM after 48 hrs by Western blotting analysis. It counts as functional, cell-based. As to conditions: dose 0.03-3 µM.
A further assay relates to COLO 205. Description: Cytotoxicity against human COLO-205 cells assessed as reduction in cell viability measured after 7 days by Celltiter-glo luminescent cell viability assay. It counts as functional, cell-based. As to conditions: COLO 205, 168 h.
The test system of a further assay is HCT-116. Put plainly: Cytotoxicity against human HCT-116 cells assessed as reduction in cell viability measured after 7 days by Celltiter-glo luminescent cell viability assay. As to conditions: HCT-116, 168 h. It counts as functional, cell-based. In general terms: ATP-based viability assays read luminescence as a measure of living cells.
Assay [3] relates to MOLM-14. Put plainly: Down regulation of phosphorylated-STAT3 level in human MOLM-14 cells at 0.03 to 3 uM after 24 hrs by Western blotting analysis. Format: functional, cell-based. As to conditions: dose 0.03-3 µM.
The target in assay [4] is Homeodomain-interacting protein kinase 2 (Homo sapiens, UniProt Q9H2X6). Description: Inhibition of HIPK2 (unknown origin) using Ser/Thr 09 as substrate incubated for 60 mins in presence of ATP by Z'-Lyte assay.
Assay [5] concerns MV4-11. Put plainly: Down regulation of phosphorylated-STAT5 level in human MV-4-11 cells after 24 hrs by Western blotting analysis. It counts as functional, cell-based. As to conditions: dose 0.03-10 µM.
The nature of assay [6]: Cytotoxicity against human CLL-119 cells assessed as reduction in cell viability measured after 7 days by Celltiter-glo luminescent cell viability assay. As to conditions: CLL-119, 168 h. Format: functional, cell-based.
A further assay concerns SET-2. Description: Cytotoxicity against human SET2 cells assessed as reduction in cell viability measured after 7 days by Celltiter-glo luminescent cell viability assay. Format: functional, cell-based. As to conditions: SET-2, 168 h.
A further assay relates to A204. Description: Cytotoxicity against human A204 cells assessed as reduction in cell viability and measured after 7 days by Celltiter-glo luminescent cell viability assay. Format: functional, cell-based. As to conditions: A204, 168 h.
In assay [7] the target is Casein kinase II subunit alpha (Homo sapiens, UniProt P68400). Description: Inhibition of CSNK2A1(unknown origin) using Ser/Thr 11 as substrate incubated for 60 mins in presence of ATP by Z'-LYTE assay.
Assay [8] concerns MV4-11. Put plainly: Down regulation of YAP level in human MV-4-11 cells at 0.03 to 3 uM after 48 hrs by Western blotting analysis. Format: functional, cell-based. As to conditions: dose 0.03-3 µM.
Assay [9] deals with MOLM-14. Description: Down regulation of phosphorylated-STAT3 level in human MOLM-14 cells at 0.03 to 3 uM after 48 hrs by Western blotting analysis. Format: functional, cell-based. As to conditions: dose 0.03-3 µM.
In assay [10] the test system is MV4-11. Put plainly: Down regulation of CTGF level in human MV-4-11 cells at 0.03 to 3 uM after 48 hrs by Western blotting analysis. Format: functional, cell-based. As to conditions: dose 0.03-3 µM.

The source made the active and inactive calls. No cut-off for these calls is given here.

Sequence of Homeodomain-interacting protein kinase 2 (Q9H2X6 whole entry): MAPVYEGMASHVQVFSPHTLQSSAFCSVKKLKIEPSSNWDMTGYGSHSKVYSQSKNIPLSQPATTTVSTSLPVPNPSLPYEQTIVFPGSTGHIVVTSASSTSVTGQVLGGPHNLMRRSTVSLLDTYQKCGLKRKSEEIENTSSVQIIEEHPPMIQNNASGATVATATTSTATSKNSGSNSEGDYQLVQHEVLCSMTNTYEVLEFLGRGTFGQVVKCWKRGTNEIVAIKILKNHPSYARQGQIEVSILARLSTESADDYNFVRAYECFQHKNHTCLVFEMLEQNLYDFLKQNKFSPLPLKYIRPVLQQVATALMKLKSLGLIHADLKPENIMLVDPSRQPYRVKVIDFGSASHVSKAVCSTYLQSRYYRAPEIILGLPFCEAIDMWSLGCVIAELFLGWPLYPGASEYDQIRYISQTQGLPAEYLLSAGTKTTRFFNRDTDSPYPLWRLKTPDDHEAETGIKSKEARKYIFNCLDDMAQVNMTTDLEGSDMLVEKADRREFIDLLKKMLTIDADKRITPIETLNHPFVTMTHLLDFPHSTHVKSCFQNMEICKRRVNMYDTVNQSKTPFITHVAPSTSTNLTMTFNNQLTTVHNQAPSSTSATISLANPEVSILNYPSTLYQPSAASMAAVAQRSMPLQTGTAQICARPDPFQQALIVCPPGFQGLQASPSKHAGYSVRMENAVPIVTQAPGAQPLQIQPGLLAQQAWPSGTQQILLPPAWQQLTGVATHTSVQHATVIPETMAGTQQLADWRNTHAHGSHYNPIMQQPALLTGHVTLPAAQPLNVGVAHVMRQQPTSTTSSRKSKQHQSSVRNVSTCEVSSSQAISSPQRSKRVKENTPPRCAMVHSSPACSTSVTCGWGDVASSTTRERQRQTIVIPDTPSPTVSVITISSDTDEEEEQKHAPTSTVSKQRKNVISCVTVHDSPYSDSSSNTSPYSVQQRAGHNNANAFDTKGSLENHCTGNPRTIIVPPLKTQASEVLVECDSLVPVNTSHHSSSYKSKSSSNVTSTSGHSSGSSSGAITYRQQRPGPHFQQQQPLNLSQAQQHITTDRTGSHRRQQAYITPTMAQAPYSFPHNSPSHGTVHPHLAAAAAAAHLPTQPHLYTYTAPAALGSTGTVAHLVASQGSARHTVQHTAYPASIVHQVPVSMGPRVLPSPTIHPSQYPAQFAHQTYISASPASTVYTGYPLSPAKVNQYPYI
Sequence of Casein kinase II subunit alpha (P68400 whole entry): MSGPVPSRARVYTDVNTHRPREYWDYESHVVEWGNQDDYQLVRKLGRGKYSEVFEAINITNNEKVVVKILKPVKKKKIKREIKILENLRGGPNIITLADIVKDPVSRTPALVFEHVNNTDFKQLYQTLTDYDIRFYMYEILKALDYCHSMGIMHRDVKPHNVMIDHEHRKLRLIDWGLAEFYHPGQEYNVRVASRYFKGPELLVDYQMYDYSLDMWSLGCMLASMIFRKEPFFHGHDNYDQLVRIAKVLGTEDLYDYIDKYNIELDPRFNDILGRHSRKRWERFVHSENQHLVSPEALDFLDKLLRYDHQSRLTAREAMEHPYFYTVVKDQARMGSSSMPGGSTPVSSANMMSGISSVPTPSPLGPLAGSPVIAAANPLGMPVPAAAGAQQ

As a reminder, the IC50 is the concentration needed to halve the response being measured. As for `Nc1nccc2c(Br)cc3cc(C(=O)[O-])ccc3c12.[Na+]`, the result in the assay with MOLM-14 [1], in the assay on MV4-11 [2], in the assay on MOLM-14 [3], in the assay on MV4-11 [8], in the assay on MOLM-14 [9] and with MV4-11 [10] was Active. In addition, the IC50 with COLO 205 is under 1 µM; in the assay with HCT-116 it was 1 µM; in [4], under 0.3 µM; in assay [6] it was under 1 µM; in the assay with SET-2 it was under 1 µM; in the assay on A204, 1 µM. The IC50 in assay [7] was under 0.3 µM. Further, the Activity entry with MV4-11 [5] was “Dose-Dependent Effect”.
